# Laboratory results as given in patent US4482565A, “β-Lactam-containing antibacterial agents and β-lactamase inhibitors” (Farmitalia Carlo Erba S.p.A., priority 1981, dated 1984).
# Read-outs that look alike come from different tables or passages of the source.
# Assays:
# Assay type in all cases: cell-based
# Escherichia coli R 57 B = assay: in vitro antibacterial activity (MIC); details: R57B; in vitro; Escherichia coli R 57 B; lactamase producer; read-out: MIC (minimal inhibitory concentration)
# Streptococcus pyogenes = assay: in vitro antibacterial activity (MIC); details: in vitro, read-out: MIC (minimal inhibitory concentration)
# Escherichia coli B Cef R = assay: in vitro antibacterial activity (MIC); details: read-out: MIC (minimal inhibitory concentration)
# [1] = tested on: Staphylococcus aureus 153; assay: in vitro antibacterial activity (MIC); details: lactamase producer, read-out: MIC (minimal inhibitory concentration)
# [2] = tested on: Pseudomonas aeruginosa FI; assay: in vitro antibacterial activity (MIC); details: collection strain, read-out: MIC (minimal inhibitory concentration)
# [3] = tested on: Enterobacter cloacae P 99; assay: in vitro antibacterial activity (MIC); details: P99, read-out: MIC (minimal inhibitory concentration)
# [4] = tested on: Staphylococcus aureus 209P; assay: in vitro antibacterial activity (MIC); details: collection strain, read-out: MIC (minimal inhibitory concentration)
# Enterobacter cloacae 214 = assay: in vitro antibacterial activity (MIC); details: lactamase producer, read-out: MIC (minimal inhibitory concentration)
# [5] = tested on: Staphylococcus aureus Smith; assay: in vitro antibacterial activity (MIC); details: collection strain, read-out: MIC (minimal inhibitory concentration)
# Salmonella typhimurium [6] = assay: in vitro antibacterial activity (MIC); details: Salmonella enterica, Salmonella typhimurium (first listing), read-out: MIC (minimal inhibitory concentration)
# Escherichia coli P 453 = assay: in vitro antibacterial activity (MIC); details: P453; in vitro; Escherichia coli P 453; lactamase producer; read-out: MIC (minimal inhibitory concentration)
# Escherichia coli B = assay: in vitro antibacterial activity (MIC); details: in vitro; Escherichia coli B; collection strain; read-out: MIC (minimal inhibitory concentration)
# [7] = tested on: Salmonella abortivoequina; assay: in vitro antibacterial activity (MIC); details: collection strain, read-out: MIC (minimal inhibitory concentration)
# Proteus mirabilis = assay: in vitro antibacterial activity (MIC), collection strain; details: in vitro, collection strain, read-out: MIC (minimal inhibitory concentration)
# Escherichia coli RGN 238 = assay: in vitro antibacterial activity (MIC); details: RGN238, lactamase producer, read-out: MIC (minimal inhibitory concentration)
# Escherichia coli R 997 = assay: in vitro antibacterial activity (MIC); details: R997, read-out: MIC (minimal inhibitory concentration)
# [8] = tested on: Klebsiella pneumoniae ATCC 10031; assay: in vitro antibacterial activity (MIC), second listing of the strain; details: ATCC10031, collection strain (second listing), read-out: MIC (minimal inhibitory concentration)
# Salmonella typhimurium [9] = assay: in vitro antibacterial activity (MIC), collection strain; details: Salmonella enterica; in vitro; Salmonella Typhimurium; collection strain (second listing); read-out: MIC (minimal inhibitory concentration)
# Pseudomonas aeruginosa = assay: in vitro antibacterial activity (MIC); details: read-out: MIC (minimal inhibitory concentration)
# Escherichia coli R 6 K = assay: in vitro antibacterial activity (MIC); details: R6K, read-out: MIC (minimal inhibitory concentration)
# Escherichia coli RP 1 = assay: in vitro antibacterial activity (MIC); details: RP1, read-out: MIC (minimal inhibitory concentration)
# Escherichia coli R 46 = assay: in vitro antibacterial activity (MIC); details: R46; in vitro; Escherichia coli R 46; lactamase producer; read-out: MIC (minimal inhibitory concentration)
# [10] = tested on: Pseudomonas aeruginosa ATCC 2598; assay: in vitro antibacterial activity (MIC); details: ATCC2598, collection strain, read-out: MIC (minimal inhibitory concentration)
# [11] = tested on: Klebsiella aerogenes ATCC 1082 E; assay: in vitro antibacterial activity (MIC); details: ATCC1082; in vitro; Klebsiella aerogenes ATCC 1082 E; lactamase producer; read-out: MIC (minimal inhibitory concentration)
# [12] = tested on: Salmonella Saint Paul F20; assay: in vitro antibacterial activity (MIC); details: read-out: MIC (minimal inhibitory concentration)
# Proteus mirabilis V15 = assay: in vitro antibacterial activity (MIC); details: read-out: MIC (minimal inhibitory concentration)
# [13] = tested on: Staphylococcus aureus PV2; assay: in vitro antibacterial activity (MIC); details: read-out: MIC (minimal inhibitory concentration)
# Enterobacter sp V19 = assay: in vitro antibacterial activity (MIC); details: read-out: MIC (minimal inhibitory concentration)
# Proteus mirabilis 525 = assay: in vitro antibacterial activity (MIC); details: in vitro; Proteus mirabilis 525; read-out: MIC (minimal inhibitory concentration)
# Escherichia coli V23 = assay: in vitro antibacterial activity (MIC); details: read-out: MIC (minimal inhibitory concentration)
# Escherichia coli V14 = assay: in vitro antibacterial activity (MIC); details: read-out: MIC (minimal inhibitory concentration)
# Salmonella panamae F15 = assay: in vitro antibacterial activity (MIC); details: in vitro; Salmonella panamae F15; read-out: MIC (minimal inhibitory concentration)
# Proteus vulgaris V15 = assay: in vitro antibacterial activity (MIC); details: read-out: MIC (minimal inhibitory concentration)
# Salmonella derby F14 = assay: in vitro antibacterial activity (MIC); details: Salmonella enterica, read-out: MIC (minimal inhibitory concentration)
# Shigella flexneri = assay: in vitro antibacterial activity (MIC); details: read-out: MIC (minimal inhibitory concentration)
# Description: A series of tests was carried out in vitro to compare the activities of (5R)-acetoxymethyl-2-acetoxymethyl-2-penum-3-carboxylate (Laboratory code FCE/20077/B40/341), (5R) acetoxymethyl-2-[(1-methyl-1H-tetrazol-5-yl)-thiomethyl]-2-penem-3-carboxylate (compound A), three reference compounds (ampicillin, cefoxitin, and thienamycin), and compound 387, which is (5R)-2-acetoxymethyl-6-(1-hydroxyethyl)-2-penem-3-carboxylic acid. The acetoxymethoxy ester of compound 387 is prepared in Example 51 and the sodium salt of the acid is prepared in Example 98 infra. Table 1 below reports the results of the above assays as MIC (minimal inhibitory concentration).
# Klebsiella sp. R2 = assay: in vitro antibacterial activity (MIC); details: read-out: MIC (minimal inhibitory concentration)
# [14] = tested on: Salmonella montevideo F16; assay: in vitro antibacterial activity (MIC); details: Salmonella enterica, read-out: MIC (minimal inhibitory concentration)
SMILES,MIC (Streptococcus pyogenes) [µg/mL],MIC (Escherichia coli B Cef R) [µg/mL],MIC [1] [µg/mL],MIC [2] [µg/mL],MIC [4] [µg/mL],MIC [5] [µg/mL],MIC (Salmonella typhimurium [6]) [µg/mL],MIC (Escherichia coli P 453) [µg/mL],MIC (Escherichia coli B) [µg/mL],MIC (Escherichia coli RGN 238) [µg/mL],MIC (Escherichia coli R 997) [µg/mL],MIC [8] [µg/mL],MIC (Pseudomonas aeruginosa; in vitro) [µg/mL],MIC (Escherichia coli R 6 K) [µg/mL],MIC (Escherichia coli RP 1) [µg/mL],MIC [11] [µg/mL],other results
"CC(=O)OCC1=C(C(=O)O)N2C(=O)C(C(C)O)[C@H]2S1 (stereo partly drawn) [Example 387, (5R)-2-acetoxymethyl-6-(1-hydroxyethyl)-2-penem-3-carboxylic acid]",0.19,25,0.045,1.56,0.095,0.045,0.39,0.78,0.78,0.78,0.78,0.78,1.56,0.78,0.39,1.56,MIC (Escherichia coli R 57 B): 0.78 µg/mL; MIC [3]: 3.12 µg/mL; MIC (Enterobacter cloacae 214): 12.5 µg/mL; MIC [7]: 0.19 µg/mL; MIC (Proteus mirabilis): 0.39 µg/mL; MIC (Salmonella typhimurium [9]): 0.39 µg/mL; MIC (Escherichia coli R 46): 0.78 µg/mL; MIC [10]: > 25 µg/mL
"CC(=O)OCOC(=O)C1=C(COC(C)=O)S[C@@H]2CC(=O)N12 [FCE/20077/B40/341, (5R)-Acetoxymethyl-2-acetoxymethyl-2-penem-3-carboxylate]",3.12,–,1.56,–,0.39,≤ 0.19,1.56,–,1.56,–,–,–,3.12,–,–,–,MIC [12]: 1.56 µg/mL; MIC (Proteus mirabilis V15): 0.39 µg/mL; MIC [13]: 0.39 µg/mL; MIC (Enterobacter sp V19): 12.5 µg/mL; MIC (Proteus mirabilis 525): 3.12 µg/mL; MIC (Escherichia coli V23): 3.12 µg/mL; MIC (Escherichia coli V14): 1.56 µg/mL; MIC (Salmonella panamae F15): 1.56 µg/mL; MIC (Proteus vulgaris V15): 3.12 µg/mL; MIC (Salmonella derby F14): 3.12 µg/mL; MIC (Shigella flexneri): 0.39 µg/mL; MIC (Klebsiella sp. R2): 25 µg/mL; MIC [14]: 3.12 µg/mL
C[C@@H](O)[C@H]1C(=O)N2C(C(=O)O)=C(SCCN)C[C@H]12 [Thienamycin],–,12.5,–,12.5,≤ 0.39,–,–,0.78,0.78,0.36,0.36,1.56,–,0.78,0.36,1.56,MIC (Pseudomonas aeruginosa): 12.5 µg/mL
